Measurements from ChEMBL document CHEMBL5291721, “A preclinical secondary pharmacology resource illuminates target-adverse drug reaction associations of marketed drugs” (Nat Commun, 2023).

How the values were obtained:
[1] = biological target: Acetylcholinesterase (Homo sapiens, UniProt P22303); assay type: functional
[2] = biological target: T1, Alpha-1A adrenergic receptor (Homo sapiens, UniProt P35348); assay type: functional, cell-based
T1 sequence (P35348 whole entry): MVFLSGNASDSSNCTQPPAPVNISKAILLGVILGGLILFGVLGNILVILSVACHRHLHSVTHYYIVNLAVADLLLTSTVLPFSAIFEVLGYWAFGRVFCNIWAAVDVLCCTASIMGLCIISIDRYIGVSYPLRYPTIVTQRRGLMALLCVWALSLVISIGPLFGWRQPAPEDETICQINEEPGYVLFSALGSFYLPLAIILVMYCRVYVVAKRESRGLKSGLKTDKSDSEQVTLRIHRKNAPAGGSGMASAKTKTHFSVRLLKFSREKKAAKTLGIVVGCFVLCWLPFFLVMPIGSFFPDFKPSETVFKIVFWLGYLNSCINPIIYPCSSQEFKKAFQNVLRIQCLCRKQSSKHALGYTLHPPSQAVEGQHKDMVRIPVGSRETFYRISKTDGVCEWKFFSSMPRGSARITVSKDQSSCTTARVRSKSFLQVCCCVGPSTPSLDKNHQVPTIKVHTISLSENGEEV

[3] = biological target: T1, Alpha-1A adrenergic receptor; assay type: functional, cell-based; remark: listed apart in the source
[4] = biological target: T2, Muscarinic acetylcholine receptor M1 (Homo sapiens, UniProt P11229); assay type: functional, cell-based
T2 sequence (P11229 whole entry): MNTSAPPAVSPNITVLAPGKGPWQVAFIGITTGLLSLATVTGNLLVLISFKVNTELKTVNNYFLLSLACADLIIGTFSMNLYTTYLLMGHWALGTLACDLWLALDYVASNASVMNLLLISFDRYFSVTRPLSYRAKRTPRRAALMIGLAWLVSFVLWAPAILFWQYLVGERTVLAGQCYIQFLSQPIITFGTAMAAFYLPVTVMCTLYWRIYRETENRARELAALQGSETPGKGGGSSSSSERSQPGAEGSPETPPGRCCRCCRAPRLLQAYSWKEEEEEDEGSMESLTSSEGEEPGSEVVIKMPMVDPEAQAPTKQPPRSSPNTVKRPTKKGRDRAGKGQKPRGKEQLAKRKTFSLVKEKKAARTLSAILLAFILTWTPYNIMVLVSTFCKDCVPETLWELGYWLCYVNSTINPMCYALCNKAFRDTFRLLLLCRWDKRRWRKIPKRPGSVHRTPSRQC

[5] = biological target: Prothrombin (Homo sapiens, UniProt P00734); assay type: functional
[6] = biological target: 5-hydroxytryptamine receptor 2B (Homo sapiens, UniProt P41595); assay type: functional, cell-based
[7] = biological target: Mu-type opioid receptor (Homo sapiens, UniProt P35372)
[8] = biological target: T3, Thromboxane A2 receptor (Homo sapiens, UniProt P21731); assay type: functional, cell-based
T3 sequence (P21731 whole entry): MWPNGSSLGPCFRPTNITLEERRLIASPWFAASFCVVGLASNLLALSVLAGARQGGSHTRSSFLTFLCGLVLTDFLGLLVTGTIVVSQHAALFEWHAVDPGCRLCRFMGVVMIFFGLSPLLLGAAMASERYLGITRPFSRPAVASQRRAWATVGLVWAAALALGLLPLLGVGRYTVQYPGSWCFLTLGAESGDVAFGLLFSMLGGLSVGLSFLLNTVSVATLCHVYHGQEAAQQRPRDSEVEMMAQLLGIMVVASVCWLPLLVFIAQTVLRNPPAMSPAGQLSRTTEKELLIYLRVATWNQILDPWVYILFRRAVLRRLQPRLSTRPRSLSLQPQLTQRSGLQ
Note: assay procedure not described here.

Chain of 5-hydroxytryptamine receptor 2B (P41595 whole entry): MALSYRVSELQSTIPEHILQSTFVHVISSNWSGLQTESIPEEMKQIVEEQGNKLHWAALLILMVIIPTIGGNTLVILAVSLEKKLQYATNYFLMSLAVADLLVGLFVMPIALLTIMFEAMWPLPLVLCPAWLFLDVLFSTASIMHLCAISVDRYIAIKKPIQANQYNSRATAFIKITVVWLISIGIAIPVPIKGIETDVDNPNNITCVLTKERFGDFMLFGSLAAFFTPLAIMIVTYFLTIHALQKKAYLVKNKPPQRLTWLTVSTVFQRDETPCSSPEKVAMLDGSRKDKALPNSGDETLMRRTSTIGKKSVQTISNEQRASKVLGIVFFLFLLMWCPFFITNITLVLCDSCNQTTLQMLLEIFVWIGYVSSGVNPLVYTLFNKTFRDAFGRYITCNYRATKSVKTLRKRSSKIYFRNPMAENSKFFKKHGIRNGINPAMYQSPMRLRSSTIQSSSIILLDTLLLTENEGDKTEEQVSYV
Chain of Mu-type opioid receptor (P35372 whole entry): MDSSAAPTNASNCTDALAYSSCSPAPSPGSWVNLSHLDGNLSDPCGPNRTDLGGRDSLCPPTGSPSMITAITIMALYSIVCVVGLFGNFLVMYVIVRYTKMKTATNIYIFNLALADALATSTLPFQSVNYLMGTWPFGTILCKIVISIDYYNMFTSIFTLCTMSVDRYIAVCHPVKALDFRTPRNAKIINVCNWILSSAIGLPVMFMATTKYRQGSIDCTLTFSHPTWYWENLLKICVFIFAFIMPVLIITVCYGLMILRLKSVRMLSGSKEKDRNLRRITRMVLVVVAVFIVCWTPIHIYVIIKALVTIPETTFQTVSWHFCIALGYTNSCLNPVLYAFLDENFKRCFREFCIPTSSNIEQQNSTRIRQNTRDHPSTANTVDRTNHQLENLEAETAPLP
Chain of Acetylcholinesterase (P22303 whole entry): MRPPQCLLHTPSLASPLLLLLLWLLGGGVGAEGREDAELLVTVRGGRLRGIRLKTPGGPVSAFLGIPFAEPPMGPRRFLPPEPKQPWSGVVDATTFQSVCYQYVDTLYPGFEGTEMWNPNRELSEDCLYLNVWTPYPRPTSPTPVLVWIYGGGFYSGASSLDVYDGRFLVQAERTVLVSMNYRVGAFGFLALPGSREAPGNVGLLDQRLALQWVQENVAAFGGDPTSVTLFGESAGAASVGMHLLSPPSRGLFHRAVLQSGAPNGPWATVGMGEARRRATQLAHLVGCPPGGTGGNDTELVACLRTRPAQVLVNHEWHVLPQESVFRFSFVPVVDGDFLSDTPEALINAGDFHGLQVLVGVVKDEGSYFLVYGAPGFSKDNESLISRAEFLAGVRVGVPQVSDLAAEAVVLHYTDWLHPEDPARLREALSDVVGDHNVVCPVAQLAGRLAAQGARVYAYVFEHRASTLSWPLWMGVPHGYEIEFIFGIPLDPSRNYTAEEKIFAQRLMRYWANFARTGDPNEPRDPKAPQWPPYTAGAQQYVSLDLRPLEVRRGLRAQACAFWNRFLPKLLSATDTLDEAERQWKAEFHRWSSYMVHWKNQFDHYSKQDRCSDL

With `NCC(CC(=O)O)c1ccccc1` (stereo not given) [PHENIBUT] the AC50 [1] was > 30 µM, the AC50 [2] was > 30 µM and the AC50 [3] was > 30 µM. The AC50 [4] was > 30 µM, the AC50 [5] was > 30 µM and the AC50 [6] was > 30 µM. The AC50 [7] was > 30 µM and the AC50 [8] was > 30 µM.

With `C=CCSCC1Nc2cc(Cl)c(S(N)(=O)=O)cc2S(=O)(=O)N1` (stereo not given) [ALTHIAZIDE] the AC50 [1] was > 30 µM, the AC50 [2] was > 30 µM and the AC50 [3] was > 30 µM. For the same compound, the AC50 [4] was > 30 µM, the AC50 [5] was > 30 µM and the AC50 [6] was > 30 µM. For the same compound, the AC50 [7] was > 30 µM and the AC50 [8] was > 30 µM.

With `NC(=O)OCC(O)COc1ccc(Cl)cc1` (stereo not given) [CHLORPHENESIN CARBAMATE] the AC50 [1] was > 30 µM, the AC50 [2] was > 30 µM and the AC50 [3] was > 30 µM. For the same compound, the AC50 [4] was > 30 µM, the AC50 [5] was > 30 µM and the AC50 [6] was > 30 µM. For the same compound, the AC50 [7] was > 30 µM and the AC50 [8] was > 30 µM.

With `C[C@H](Cc1cc2c(c(C(N)=O)c1)N(CCCO)CC2)NCCOc1ccccc1OCC(F)(F)F` [SILODOSIN] the AC50 [1] was > 30 µM, the AC50 [2] was > 30 µM and the AC50 [3] was 0.003 µM. The AC50 [4] was > 30 µM, the AC50 [5] was > 30 µM and the AC50 [6] was > 30 µM. For the same compound, the AC50 [7] was 3.34 µM and the AC50 [8] was > 30 µM.

With `CCN(CCCc1ccccc1)CCCc1ccccc1` [ALVERINE] the AC50 [1] was > 30 µM, the AC50 [2] was > 30 µM and the AC50 [3] was 0.978 µM. The AC50 [4] was > 30 µM, the AC50 [5] was > 30 µM and the AC50 [6] was > 30 µM. For the same compound, the AC50 [7] was 2 µM and the AC50 [8] was > 30 µM.

For `CCN(CC)C(=S)S` [DITIOCARB], the AC50 [1] was > 10 µM, the AC50 [2] was > 30 µM and the AC50 [3] was > 1 µM. The AC50 [4] was > 30 µM, the AC50 [5] was > 30 µM and the AC50 [6] was > 30 µM. The AC50 [7] was > 30 µM and the AC50 [8] was > 30 µM.

With `CC(N)Cc1ccc(O)cc1` (stereo not given) [HYDROXYAMPHETAMINE] the AC50 [1] was > 30 µM, the AC50 [2] was > 30 µM and the AC50 [3] was > 30 µM. For the same compound, the AC50 [4] was > 30 µM, the AC50 [5] was > 30 µM and the AC50 [6] was > 30 µM. The AC50 [7] was > 30 µM and the AC50 [8] was > 30 µM.

With `CCOC(=O)[C@H](CCc1ccccc1)N[C@@H](C)C(=O)N(CC(=O)O)C1Cc2ccccc2C1` the AC50 [1] was > 30 µM, the AC50 [2] was > 30 µM and the AC50 [3] was > 30 µM. For the same compound, the AC50 [4] was > 30 µM, the AC50 [5] was > 30 µM and the AC50 [6] was > 30 µM. For the same compound, the AC50 [7] was > 30 µM and the AC50 [8] was > 30 µM.

With `CCOC(=O)N1CSC[C@H]1C(=O)O` [TELMESTEINE] the AC50 [1] was > 30 µM, the AC50 [2] was > 30 µM and the AC50 [3] was > 30 µM. The AC50 [4] was > 30 µM, the AC50 [5] was > 30 µM and the AC50 [6] was > 30 µM. The AC50 [7] was > 30 µM and the AC50 [8] was > 30 µM.

In the case of `CC(C)N(CCNC(=O)CN1CCCC1=O)C(C)C`, the AC50 [1] is reported as > 30 µM, the AC50 [2] is reported as > 30 µM and the AC50 [3] is reported as > 30 µM. For the same compound, the AC50 [4] was > 30 µM, the AC50 [5] was > 30 µM and the AC50 [6] was > 30 µM. For the same compound, the AC50 [7] was > 30 µM and the AC50 [8] was > 30 µM.

In the case of `CN1C(=O)/C(=N\NC(N)=S)c2ccccc21` [METHISAZONE], the AC50 [1] is reported as > 30 µM, the AC50 [2] is reported as > 30 µM and the AC50 [3] is reported as 13.1 µM. The AC50 [4] was 26.4 µM, the AC50 [5] was > 30 µM and the AC50 [6] was > 30 µM. The AC50 [7] was > 30 µM and the AC50 [8] was 21.8 µM.

In the case of `c1ccc2c(c1)CCc1ccccc1N2C1CN2CCC1CC2` (stereo not given) [QUINUPRAMINE], the AC50 [1] is reported as > 30 µM, the AC50 [2] is reported as > 30 µM and the AC50 [3] is reported as 2.41 µM. For the same compound, the AC50 [4] was > 30 µM, the AC50 [5] was > 30 µM and the AC50 [6] was > 30 µM. For the same compound, the AC50 [7] was 1.84 µM and the AC50 [8] was > 30 µM.

In the case of `CCC(=O)O[C@]1(C(=O)CCl)[C@@H](C)C[C@H]2[C@@H]3C[C@H](F)C4=CC(=O)C=C[C@]4(C)[C@@]3(F)[C@@H](O)C[C@@]21C` [HALOBETASOL PROPIONATE], the AC50 [1] is reported as > 30 µM, the AC50 [2] is reported as > 30 µM and the AC50 [3] is reported as 13.1 µM. For the same compound, the AC50 [4] was > 30 µM, the AC50 [5] was > 30 µM and the AC50 [6] was > 30 µM. The AC50 [7] was > 30 µM and the AC50 [8] was > 30 µM.

`Cc1cc(NC(=O)C2=C(O)c3ccccc3S(=O)(=O)N2C)no1` [ISOXICAM] was tested, and the AC50 [1] was > 30 µM, the AC50 [2] was > 30 µM and the AC50 [3] was > 30 µM. The AC50 [4] was > 30 µM, the AC50 [5] was > 30 µM and the AC50 [6] was > 30 µM. The AC50 [7] was > 30 µM and the AC50 [8] was > 30 µM.

With `CC1=CCC(C(C)(C)O)CC1O` (stereo not given) [SOBREROL] the AC50 [1] was > 30 µM, the AC50 [2] was > 30 µM and the AC50 [3] was > 30 µM. The AC50 [4] was > 30 µM, the AC50 [5] was > 30 µM and the AC50 [6] was > 30 µM. For the same compound, the AC50 [7] was > 30 µM and the AC50 [8] was > 30 µM.

In the case of `Cc1cc(N)c2ccccc2[n+]1CCCCCCCCCC[n+]1c(C)cc(N)c2ccccc21`, the AC50 [1] is reported as 0.0264 µM, the AC50 [2] is reported as 23.9 µM and the AC50 [3] is reported as 3.21 µM. The AC50 [4] was > 30 µM, the AC50 [5] was 28.8 µM and the AC50 [7] was 0.684 µM. The AC50 [8] was > 30 µM.

`COc1cc2c(cc1OC)CC(=O)N(CCCN(C)C[C@H]1Cc3cc(OC)c(OC)cc31)CC2` [IVABRADINE] was tested, and the AC50 [1] was > 30 µM, the AC50 [2] was > 30 µM and the AC50 [3] was > 30 µM. The AC50 [4] was > 30 µM, the AC50 [5] was > 30 µM and the AC50 [6] was > 30 µM. For the same compound, the AC50 [7] was > 30 µM and the AC50 [8] was > 30 µM.

In the case of `CC[C@@H]([C@H](C)O)n1ncn(-c2ccc(N3CCN(c4ccc(OC[C@@H]5CO[C@@](Cn6cncn6)(c6ccc(F)cc6F)C5)cc4)CC3)cc2)c1=O` [POSACONAZOLE], the AC50 [1] is reported as > 30 µM, the AC50 [2] is reported as > 30 µM and the AC50 [3] is reported as > 1 µM. For the same compound, the AC50 [4] was > 30 µM, the AC50 [5] was > 30 µM and the AC50 [6] was > 30 µM. The AC50 [7] was > 30 µM and the AC50 [8] was > 30 µM.

`CCCc1nc(C(C)(C)O)c(C(=O)O)n1Cc1ccc(-c2ccccc2-c2nnn[nH]2)cc1` [OLMESARTAN] was tested, and the AC50 [1] was > 30 µM, the AC50 [2] was > 30 µM and the AC50 [3] was > 30 µM. The AC50 [4] was > 30 µM, the AC50 [5] was > 30 µM and the AC50 [6] was > 30 µM. For the same compound, the AC50 [7] was > 30 µM and the AC50 [8] was > 30 µM.

In the case of `Cc1ncc(COP(=O)(O)O)c(C=O)c1O` [PYRIDOXAL PHOSPHATE ANHYDROUS], the AC50 [1] is reported as > 30 µM, the AC50 [2] is reported as > 30 µM and the AC50 [3] is reported as > 30 µM. The AC50 [4] was > 30 µM, the AC50 [5] was > 30 µM and the AC50 [6] was > 30 µM. The AC50 [7] was > 30 µM and the AC50 [8] was > 30 µM.

`CN(C)CCOC(c1ccccc1)c1ccc(Br)cc1` (stereo not given) [BROMODIPHENHYDRAMINE] was tested, and the AC50 [1] was > 30 µM, the AC50 [2] was > 30 µM and the AC50 [3] was > 10 µM. The AC50 [4] was > 30 µM, the AC50 [5] was > 30 µM and the AC50 [6] was > 30 µM. The AC50 [7] was 17.9 µM and the AC50 [8] was > 30 µM.

With `COc1cc(N2CCC(N3CCN(C)CC3)CC2)ccc1Nc1ncc(Cl)c(Nc2ccccc2P(C)(C)=O)n1` [BRIGATINIB] the AC50 [1] was > 30 µM, the AC50 [2] was > 30 µM and the AC50 [3] was > 30 µM. For the same compound, the AC50 [4] was > 30 µM, the AC50 [5] was > 30 µM and the AC50 [6] was > 30 µM. For the same compound, the AC50 [7] was > 30 µM and the AC50 [8] was > 30 µM.
